Experimental data taken from US20130288897A1, “SYNERGISTIC PESTICIDAL COMPOSITIONS” (Dow AgroSciences LLC, priority 2012, published 2013).
“And” between values parts separate entries of the source, which are not always exact repeats. Identical values can stand only once.

Tests used:
Type in all cases: in vivo
[1] = system: cotton aphid (CA) Aphis gossypii; experiment: Cotton aphid track-sprayer test on cotton: Compound A with glufosinate (Liberty) and AMS, rates 0.4, 0.1 and 0.025 g/Ha (Example XVIII)
Procedure: (§1) Glyphosate resistant cotton plants (Gossypium hirsutum, cv ‘DP493’) were trimmed to 1 true leaf and infested with mixed stages of cotton aphid (CA) Aphis gossypii 24 hours prior to application. Mixed developmental stage CA were infested onto the upper surface of each treated leaf by transferring infested foliage from an insectary colony. Each plant was infested with approximately equal numbers of CA based on visual estimation of aphid density on the infested material. Infested plants were held in the growth chamber (L:D 16:8 and 25° C.). Glufosinate (Liberty®, Bayer CropScience, Monheim am Rhein, Germany) was mixed with water at a rate equivalent to 5 ml/L (0.4 qt/Ac). […] High rate Compound A concentrations were created by diluting Compound A technical material with acetone to achieve a 20 ppm solution. […] […] […] Nozzle height above the canopy was held constant at ca. 30 cm. Plants were evaluated after 3 days from the time of infestation by counting all live cotton aphids on each plant.

[2] = system: cotton aphid (CA) Aphis gossypii; experiment: Cotton aphid track-sprayer test on cotton: Compound A or imidacloprid with Durango (glyphosate) or Durango Blank and AMS (Example XVI); conditions: for % Control (Negatives to zero) Ave / % control Ave / Colbv predicted values Ave: average of 5 reps
Procedure: as §1, with “24 h” for “24 hours”, “C.). Glyphosate (Durango®, Dow AgroSciences, LLC, Indianapolis, Ind.)” for “C.). Glufosinate (Liberty®, Bayer CropScience, Monheim am Rhein, Germany)”, “to 15” for “to 5”, “ml/L (1.2” for “ml/L (0.4”, “qt/Ac). […] A glyphosate free formulation of Durango® was prepared using these same mixing instructions.” for “qt/Ac).”, “a 10” for “a 20”
[…] Percent control for all treatments was calculated using the rep average for the untreated plants.

[3] = system: cotton aphid (CA) Aphis gossypii; experiment: Cotton aphid track-sprayer test on cotton: Compound A or imidacloprid with glufosinate (Liberty) and AMS (Example XVII); conditions: for % control / % control Negatives to zero / Colby Predicted Values: Rep 1-6
Procedure: as §1, with “h” for “hours”, “10” for “20”
TABLE 6 contains the calculated Colby values for combinations of treatments as well as the outcome of statistical evaluations between predicted (Colby) and actual measured values. These T-test statistics were only calculated for the 0.2 and 0.05 g/Ha rates. […] These same trends were apparent when Compound A was applied with both glufosinate and AMS.

[4] = 0.025 g In./HA + Lib. 0.005 ml/ml
[5] = 0.025 g In./HA + Lib. 0.005 ml/ml + AMS 18 g/L
[6] = 0.1 g In./HA + Lib. 0.005 ml/ml
[7] = 0.1 g In./HA + Lib. 0.005 ml/ml + AMS 18 g/L
[8] = 0.4 g In./HA + Lib. 0.005 ml/ml
[9] = 0.4 g In./HA + Lib. 0.005 ml/ml + AMS 18 g/L
[10] = Rep 1-6, 0.1 g In./HA + Lib. 0.005 ml/ml
[11] = Rep 1-6, 0.1 g In./HA + Lib. 0.005 ml/ml + AMS 18 g/L
[12] = Rep 1-6, 0.4 g In./HA + Lib. 0.005 ml/ml
[13] = Rep 1-6, 0.4 g In./HA + Lib. 0.005 ml/ml + AMS 18 g/L
[14] = 0.0125 g insecticide/Ha with Durango 0.015 ml/ml + AMS 18 g/L
[15] = 0.0125 g insecticide/Ha with Durango 0.015 ml/ml
[16] = 0.0125 g insecticide/Ha with Durango Blank 0.015 ml/ml + AMS 18 g/L
[17] = 0.0125 g insecticide/Ha with Durango Blank 0.015 ml/ml
[18] = 0.05 g insecticide/Ha with Durango 0.015 ml/ml + AMS 18 g/L, Rep 1-5
[19] = 0.05 g insecticide/Ha with Durango 0.015 ml/ml + AMS 18 g/L
[20] = 0.05 g insecticide/Ha with Durango 0.015 ml/ml
[21] = 0.05 g insecticide/Ha with Durango Blank 0.015 ml/ml + AMS 18 g/L
[22] = 0.05 g insecticide/Ha with Durango Blank 0.015 ml/ml
[23] = 0.2 g insecticide/Ha with Durango 0.015 ml/ml + AMS 18 g/L, Rep 1-5
[24] = 0.2 g insecticide/Ha with Durango 0.015 ml/ml + AMS 18 g/L
[25] = 0.2 g insecticide/Ha with Durango 0.015 ml/ml, Rep 1-5
[26] = 0.2 g insecticide/Ha with Durango 0.015 ml/ml
[27] = 0.2 g insecticide/Ha with Durango Blank 0.015 ml/ml + AMS 18 g/L, Rep 1-5
[28] = 0.2 g insecticide/Ha with Durango Blank 0.015 ml/ml + AMS 18 g/L
[29] = 0.2 g insecticide/Ha with Durango Blank 0.015 ml/ml
[30] = 0.0125 g In./Ha + glufosinate 0.005 ml/ml + AMS 18 mg/ml
[31] = 0.05 g In./Ha + glufosinate 0.005 ml/ml
[32] = 0.05 g In./Ha + glufosinate 0.005 ml/ml + AMS 18 mg/ml
[33] = 0.2 g In./Ha + glufosinate 0.005 ml/ml
[34] = 0.2 g In./Ha + glufosinate 0.005 ml/ml + AMS 18 mg/ml
[35] = 0.2 g In./Ha, no glufosinate, no AMS

## CC(c1ccc(C(F)(F)F)nc1)S(C)(=O)=NC#N (centres unmarked) [Compound A, [1-(6-Trifluoromethylpyridin-3-yl)ethyl](methyl)-oxido-λ^4-sulfanylidenecyanamide]
[1]; [4]
  % Control (Negatives to zero) Ave: 54.2%
  Colby Predicted Values Ave: 56.8
[1]; [5]
  % Control (Negatives to zero) Ave: 85.6%
  Colby Predicted Values Ave: 62.5
[1]; [6]
  % Control (Negatives to zero) Ave: 76.7%
  Colby Predicted Values Ave: 72.4
[1]; [7]
  % Control (Negatives to zero) Ave: 89.7%
  Colby Predicted Values Ave: 76.7
[1]; 0.1 g In./HA, no Lib., no AMS
  % Control (Negatives to zero) Ave: 62.1%
[1]; [8]
  % Control (Negatives to zero) Ave: 99.0%
  Colby Predicted Values Ave: 98.2
[1]; [9]
  % Control (Negatives to zero) Ave: 98.2%
  Colby Predicted Values Ave: 98.4
[1]; 0.4 g In./HA, no Lib., no AMS
  % Control (Negatives to zero) Ave: 97.3%
[1]; 0025 g In./HA, no Lib., no AMS
  % Control (Negatives to zero) Ave: 39.5%
[1]; Rep 1-6, 0.025 g In./HA + Lib. 0.005 ml/ml + AMS 18 g/L
  % control Negatives to zero: 70.0% and 95.4% and 97.0% and 89.1% and 65.9% and 96.2%
[1]; Rep 1-6, 0.025 g In./Ha, no Liberty, no AMS
  CA Counts: 198 and 126 and 194 and 117 and 231 and 212
[1]; [10]
  % control Negatives to zero: 58.2% and 79.2% and 98.0% and 58.5% and 82.6% and 84.0%
  Colby Predicted Values: 74.4 and 70.0 and 71.8 and 78.3 and 93.2 and 46.6
[1]; [11]
  % control Negatives to zero: 95.2% and 89.4% and 91.2% and 81.2% and 99.0% and 81.9%
  Colby Predicted Values: 81.3 and 73.3 and 73.7 and 78.5 and 93.8 and 59.6
[1]; Rep 1-6, 0.1 g In./HA, no Lib., no AMS
  % control Negatives to zero: 65.2% and 70.0% and 54.2% and 73.5% and 70.9% and 38.7%
[1]; [12]
  % control Negatives to zero: 97.8% and 100.0% and 99.0% and 98.4% and 98.7%
  Colby Predicted Values: 99.3 and 97.9 and 96.6 and 99.2 and 97.3
[1]; [13]
  % control Negatives to zero: 98.2% and 100.0% and 98.3% and 92.7%
  Colby Predicted Values: 99.0 and 99.4 and 98.1 and 96.6 and 99.3 and 97.9
[1]; Rep 1-6, 0.4 g In./HA, no Lib., no AMS
  % control Negatives to zero: 98.2% and 99.3% and 96.6% and 95.8% and 96.7% and 96.9%
[2]; [14]
  % Control (Negatives to zero) Ave: 23.8%
  % control Ave: 11.7%
  Colbv predicted values Ave: 48.0
[2]; [15]
  % Control (Negatives to zero) Ave: 17.4%
  % control Ave: 0.5%
  Colbv predicted values Ave: 36.6
[2]; [16]
  % Control (Negatives to zero) Ave: 26.5%
  % control Ave: 25.1%
  Colbv predicted values Ave: 56.2
[2]; [17]
  % Control (Negatives to zero) Ave: 15.8%
  % control Ave: −22.7%
  Colbv predicted values Ave: 36.6
[2]; 0.0125 g insecticide/Ha, no herbicide, no AMS
  % control Ave: 5.5%
[2]; [18]
  % control: 68.6% and 52.3% and 68.2% and 65.8% and 35.3%
  % control Negatives to zero: 68.6% and 52.3% and 68.2% and 65.8% and 35.3%
  CA Counts: 37 and 49 and 36 and 25 and 48
[2]; [19]
  % Control (Negatives to zero) Ave: 58.0%
  % control Ave: 58.0%
  Colbv predicted values Ave: 55.3
[2]; [20]
  % Control (Negatives to zero) Ave: 14.2%
  % control Ave: 9.1%
  Colbv predicted values Ave: 45.2
[2]; [21]
  % Control (Negatives to zero) Ave: 37.9%
  % control Ave: 35.5%
  Colbv predicted values Ave: 56.9
[2]; [22]
  % Control (Negatives to zero) Ave: 36.1%
  % control Ave: 36.1%
  Colbv predicted values Ave: 43.6
[2]; 0.05 g insecticide/Ha, no herbicide, no AMS
  % control Ave: 31.8%
[2]; [23]
  % control: 97.5% and 100.0%
  % control Negatives to zero: 97.5% and 100.0%
[2]; [24]
  % Control (Negatives to zero) Ave: 99.5%
  % control Ave: 99.5%
  Colbv predicted values Ave: 72.8
[2]; [25]
  % control: 89.8% and 96.1% and 76.1% and 91.8% and 96.0%
  % control Negatives to zero: 89.8% and 96.1% and 76.1% and 91.8% and 96.0%
[2]; [26]
  % Control (Negatives to zero) Ave: 90.0%
  % control Ave: 90.0%
  Colbv predicted values Ave: 70.5
[2]; [27]
  % control: 66.9% and 97.1% and 76.1% and 79.5% and 74.4%
  % control Negatives to zero: 68.9% and 97.1% and 76.1% and 79.5% and 74.4%
  Colbv predicted values: 97.5 and 77.2 and 97.3 and 72.7 and 71.7
[2]; [28]
  % Control (Negatives to zero) Ave: 78.8%
  % control Ave: 78.8%
  Colbv predicted values Ave: 83.3
[2]; [29]
  % Control (Negatives to zero) Ave: 60.1%
  % control Ave: 60.1%
  Colbv predicted values Ave: 71.5
[2]; 0.2 g insecticide/Ha, no herbicide, no AMS
  % control Ave: 50.2%
[3]; 0.0125 g In./Ha + glufosinate 0.005 ml/ml
  % control AVE: 57.9%
[3]; [30]
  % control AVE: 85.5%
  % control: 94.7% and 89.7% and 68.6% and 90.7% and 83.8% and 95.5%
  % control Negatives to zero: 94.7% and 89.7% and 68.6% and 90.7% and 83.8% and 93.9%
[3]; 0.0125 g In./Ha, combination with glufosinate
  Colby Predicted Values Ave: 48.7
[3]; 0.0125 g In./Ha, combination with glufosinate and AMS
  Colby Predicted Values Ave: 56.8
[3]; 0.0125 g In./Ha, no glufosinate, no AMS
  % control AVE: 22.9%
[3]; [31]
  % control AVE: 82.1%
  % control: 81.3% and 80.2% and 72.9% and 99.2% and 77.0% and 89.4%
  % control Negatives to zero: 81.3% and 80.2% and 72.9% and 99.2% and 77.0% and 89.4%
[3]; [32]
  % control AVE: 91.8%
  % control: 89.3% and 96.6% and 77.1% and 97.5% and 98.6% and 80.3%
  % control Negatives to zero: 89.3% and 96.6% and 77.1% and 97.5% and 98.6% and 80.3%
[3]; 0.05 g In./Ha, combination with glufosinate
  Colby Predicted Values Ave: 63.4
[3]; 0.05 g In./Ha, combination with glufosinate and AMS
  Colby Predicted Values Ave: 67.4
[3]; 0.05 g In./Ha, no glufosinate, no AMS
  % control AVE: 60.2%
[3]; [33]
  % control AVE: 95.3%
  % control: 97.3% and 95.7% and 93.2% and 94.6% and 86.4%
  % control Negatives to zero: 97.3% and 95.7% and 93.2% and 94.6% and 86.4%
[3]; [34]
  % control AVE: 96.6%
  % control: 98.7% and 94.0% and 94.3% and 97.5% and 98.6% and 93.9%
  % control Negatives to zero: 98.7% and 94.0% and 94.3% and 97.5% and 98.6% and 93.9%
[3]; 0.2 g In./Ha, combination with glufosinate
  Colby Predicted Values Ave: 85.7
[3]; 0.2 g In./Ha, combination with glufosinate and AMS
  Colby Predicted Values Ave: 87.7
[3]; [35]
  % control AVE: 87.0%
  % control: 77.3% and 87.9% and 91.4% and 86.4% and 91.9% and 68.2%
[3]; 0.2 g In./Ha, first block of lines (combination with glufosinate)
  Colby Predicted Values: 77.3 and 91.2 and 95.9 and 90.1 and 91.9 and 68.2
[3]; 0.2 g In./Ha, second block of lines (combination with glufosinate and AMS)
  Colby Predicted Values: 90.0 and 93.9 and 95.3 and 87.0 and 91.9 and 68.2
